Reference: patent publication US20250186646A1, “Use of Volatile Compositions to Limit or Eliminate Perception of Fecal Malodour” (Firmenich SA, priority 2016, published 2025)

Experiments:
butyric acid = assay: Reduction of perceived intensity of butyric acid by MOCs (Table 16); type: in vivo; details: for Butyric acid Dyn Conc: concentration at which the MOC reduces the perceived intensity of butyric acid; for Butyric acid Reduction: perceived intensity of butyric acid, at the Dyn Conc
p-cresol = assay: Reduction of perceived intensity of p-cresol by MOCs (Table 16); type: in vivo; details: for p-cresol Dyn Conc: concentration at which the MOC reduces the perceived intensity of p-cresol; for p-cresol Reduction: perceived intensity of p-cresol, at the Dyn Conc
indole = assay: Reduction of perceived intensity of indole by MOCs (Table 16); type: in vivo; details: for Indole Dyn Conc: concentration at which the MOC reduces the perceived intensity of indole; for Indole Reduction: perceived intensity of indole, at the Dyn Conc
DMTS = assay: Reduction of perceived intensity of DMTS by MOCs (Table 16); type: in vivo; details: for DMTS Dyn Conc: concentration at which the MOC reduces the perceived intensity of DMTS; for DMTS Reduction: perceived intensity of DMTS, at the Dyn Conc
[1] = tested on: fecal malodour reconstitution; assay: Olfactometer blind sensory evaluation of test and control formulations (Example 15); type: in vivo; parameters: Fecal Score / Freshness Score / Pleasantness Score: scale not given here; details: for Fecal Score: in combination with fecal reconstitution; for Fecal Score left: relative to fecal reconstitution alone (100)
Procedure: (§1) The performance of a test formulation containing LILYFLORE, Violet AT and Isoraldeine to counteract the fecal malodour perceived from a fecal malodour reconstitution was tested. The amount of each single ingredient in the test formulation was the same as the corresponding concentration of the ingredient that was incorporated into the Floral compositions. Separate control formulations were also included, comprising LILYFLORE, Violet AT and Isoraldeine separately, at the same concentration as each single ingredient in the test formulation. The sensory evaluation was blind, and performed using olfactometers and a set of more than 30 participants evaluating blind. In parallel, the headspace concentration of the ingredients from the test and three control formulations was determined.
as §1, with “of another” for “of a”, “and dihydrolinalol” for “and Isoraldeine”, “tested.” for “tested. The amount of each single ingredient in the test formulation was the same as the corresponding concentration of the ingredient that was incorporated into the Floral compositions.”
The performance of another test formulation containing LILYFLORE, isoraldeine, Violet AT and dihydrolinalol to counteract the fecal malodour perceived from a fecal malodour reconstitution was tested. Separate control formulations were also included, comprising LILYFLORE, Violet AT, isoraldeine and dihydrolinalol separately, at the same concentration as each single ingredient in the test formulation. The sensory evaluation was blind, and performed using olfactometers and a set of more than 30 participants evaluating blind. In parallel, the headspace concentration of the ingredients from the test and […] control formulations was determined.

[2] = Olfactory detection thresholds (ODT); details: gas phase
butyric acid receptors = assay: Ex vivo live neuron assay antagonism screening; type: cell-based, mice; details: butyric acid malodour target
Description: In the ex vivo live neuron assay, olfactory sensory neurons (OSNs) are extracted from the olfactory epithelium of mice and can be tested for responses to sequentially delivered stimuli, where responses are detected through live-cell calcium-imaging microscopy. It has been established through prior research in the field that the vast majority of extracted OSNs express 1 out of the approximately 1200 odourant receptors (ORs) present in the genome of a mouse, such that in our samples of extracted OSNs, the majority of the 1200 ORs should have been represented in at least one OSN. Since the responses of the OSNs to the delivered stimuli are entirely driven by the expressed OR, the OSNs selectively detect and collectively encode the identity and intensity of odourants. By stimulating the OSNs with MO molecules and measuring the response of each OSN, the subset in which a response is induced is those that detect and therefore presumably encode the MO. By subsequently delivering a mixture of MO and a candidate antagonist to the same cells, the degree of suppression of signal in each MO-responsive OSN can be determined (“level of inhibition”). […] In addition, the proportion of MO-responsive OSNs displaying low, medium and high inhibition was calculated. […]

Molecule: C/C=C/C(=O)C1C(C)=CCCC1(C)C (racemic) [Alpha damascone, (+−)-(2E)-1-(2,6,6-trimethyl-2-cyclohexen-1-yl)-2-buten-1-one]
- Butyric acid Dyn Conc (butyric acid): 0.041 µg/L
- Butyric acid Reduction (butyric acid): 43
- p-cresol Dyn Conc (p-cresol): 0.0413 µg/L
- p-cresol Reduction (p-cresol): 62

Molecule: CC(C)=CCCC(C)CCO (racemic) [Citronellol BJ, (+−)-3,7-DIMETHYL-6-OCTEN-1-OL]
- Butyric acid Dyn Conc (butyric acid): 0.0947 µg/L
- Butyric acid Reduction (butyric acid): 55
- p-cresol Dyn Conc (p-cresol): 0.11 µg/L
- p-cresol Reduction (p-cresol): 61
- Indole Dyn Conc (indole): 0.252 µg/L
- Indole Reduction (indole): 65

Molecule: CCCCCC1CCCC1=O (racemic) [Delphone, (+−)-2-pentylcyclopentanone]
- p-cresol Dyn Conc (p-cresol): 0.0488 µg/L
- p-cresol Reduction (p-cresol): 64
- DMTS Dyn Conc (DMTS): 0.046 µg/L
- DMTS Reduction (DMTS): 67

Molecule: C=CC(C)(O)CCCC(C)C (racemic) [Dihydrolinalol, (+−)-3,7-DIMETHYL-1-OCTEN-3-OL]
- Butyric acid Dyn Conc (butyric acid): 0.76 µg/L
- Butyric acid Reduction (butyric acid): 64
- Fecal % Redn ([1]; Table 19): 35%
- Freshness Score ([1]; Table 19): 3.9
- Pleasantness Score ([1]; Table 19): 3.5
- Fecal Score ([1]; Table 19): 5.6
- Fecal Score left ([1]; Table 19): 65
- Fecal % Redn ([1]; Table 20): 30%
- Freshness Score ([1]; Table 20): 3.2
- Pleasantness Score ([1]; Table 20): 3.2
- Fecal Score ([1]; Table 20): 6.1
- Fecal Score left ([1]; Table 20): 70
- olfactory detection thresholds (ODT) [2]: 0.00137 µg/L
- antagonism of malodour receptors (butyric acid receptors): antagonist of butyric acid receptors

Molecule: Cc1ccc2c(c1)CC(C)(CO)C2 (racemic) [LILYFLORE, (+−)-2,5-DIMETHYL-2-INDANMETHANOL]
- Butyric acid Dyn Conc (butyric acid): 0.0351 µg/L
- Butyric acid Reduction (butyric acid): 58
- p-cresol Dyn Conc (p-cresol): 0.22 µg/L
- p-cresol Reduction (p-cresol): 76
- Fecal % Red ([1]; Table 18): 56%
- Freshness Score ([1]; Table 18): 4.4
- Pleasantness Score ([1]; Table 18): 4.8
- Fecal Score ([1]; Table 18): 3.8
- Fecal Score left ([1]; Table 18): 44
- Fecal % Redn ([1]; Table 19): 45%
- Freshness Score ([1]; Table 19): 4.0
- Pleasantness Score ([1]; Table 19): 4.1
- Fecal Score ([1]; Table 19): 4.7
- Fecal Score left ([1]; Table 19): 55
- Fecal % Redn ([1]; Table 20): 45%
- Freshness Score ([1]; Table 20): 3.9
- Pleasantness Score ([1]; Table 20): 3.8
- Fecal Score ([1]; Table 20): 4.8
- Fecal Score left ([1]; Table 20): 55
- DMTS Dyn Conc (DMTS): 0.126 µg/L
- DMTS Reduction (DMTS): 64
- olfactory detection thresholds (ODT) [2]: 0.000128 µg/L
- Indole Dyn Conc (indole): 0.206 µg/L
- Indole Reduction (indole): 81

Molecule: CC(=O)OC(c1ccccc1)C(Cl)(Cl)Cl (racemic) [Rosinol Cryst, (+−)-2,2,2-TRICHLORO-1-PHENYLETHYL ACETATE]
- DMTS Dyn Conc (DMTS): 0.659 µg/L
- DMTS Reduction (DMTS): 38

Molecule: CC(=O)OCc1ccccc1 [Benzyl acetate, Benzyl Acetate]
- Butyric acid Dyn Conc (butyric acid): 1.31 µg/L
- Butyric acid Reduction (butyric acid): 54

Molecule: CCCCCC/C(C=O)=C\c1ccccc1 [Hexylcinnamic aldehyde, (2E)-2-benzylideneoctanal]
- Butyric acid Dyn Conc (butyric acid): 1.34 µg/L
- Butyric acid Reduction (butyric acid): 26
- p-cresol Dyn Conc (p-cresol): 1.34 µg/L
- p-cresol Reduction (p-cresol): 39

Molecule: OCCc1ccccc1 [Phenylethyl alcohol, 2-PHENYLETHANOL]
- p-cresol Dyn Conc (p-cresol): 0.318 µg/L
- p-cresol Reduction (p-cresol): 49
- DMTS Dyn Conc (DMTS): 1.03 µg/L
- DMTS Reduction (DMTS): 55
- Indole Dyn Conc (indole): 0.538 µg/L
- Indole Reduction (indole): 46

Molecule: (1RS,2RS)-2,4-dimethyl-3-cyclohexene-1-carbaldehyde (A) + (1RS,2SR)-2,4-dimethyl-3-cyclohexene-1-carbaldehyde (B) [Zestover]
- Butyric acid Dyn Conc (butyric acid): 0.0809 µg/L
- Butyric acid Reduction (butyric acid): 68
- p-cresol Dyn Conc (p-cresol): 0.0607 µg/L
- p-cresol Reduction (p-cresol): 66
- DMTS Dyn Conc (DMTS): 0.38 µg/L
- DMTS Reduction (DMTS): 78
- Indole Dyn Conc (indole): 0.348 µg/L
- Indole Reduction (indole): 82

Molecule: (+−)-(3E)-3-methyl-4-(2,6,6-trimethyl-2-cyclohexen-1-yl)-3-buten-2-one (A) + (+−)-(1E)-1-(2,6,6-trimethyl-2-cyclohexen-1-yl)-1-penten-3-one (B) [Isoraldeine 70P]
- Butyric acid Dyn Conc (butyric acid): 0.0674 µg/L
- Butyric acid Reduction (butyric acid): 25
- p-cresol Dyn Conc (p-cresol): 0.0674 µg/L
- p-cresol Reduction (p-cresol): 49
- Fecal % Red ([1]; Table 18): 58%
- Freshness Score ([1]; Table 18): 4.8
- Pleasantness Score ([1]; Table 18): 5.1
- Fecal Score ([1]; Table 18): 3.6
- Fecal Score left ([1]; Table 18): 42
- Fecal % Redn ([1]; Table 20): 49%
- Freshness Score ([1]; Table 20): 4.6
- Pleasantness Score ([1]; Table 20): 4.5
- Fecal Score ([1]; Table 20): 4.4
- Fecal Score left ([1]; Table 20): 51
- DMTS Dyn Conc (DMTS): 0.216 µg/L
- DMTS Reduction (DMTS): 69
- olfactory detection thresholds (ODT) [2]: 0.000192 µg/L
- Indole Dyn Conc (indole): 0.542 µg/L
- Indole Reduction (indole): 79

Molecule: (+−)-(3E)-4-(2,6,6-trimethyl-2-cyclohexen-1-yl)-3-buten-2-one (A) + (3E)-4-(2,6,6-trimethyl-1-cyclohexen-1-yl)-3-buten-2-one (B) [Violet AT]
- Butyric acid Dyn Conc (butyric acid): 0.123 µg/L
- Butyric acid Reduction (butyric acid): 55
- p-cresol Dyn Conc (p-cresol): 0.133 µg/L
- p-cresol Reduction (p-cresol): 85
- Fecal % Red ([1]; Table 18): 58%
- Freshness Score ([1]; Table 18): 4.7
- Pleasantness Score ([1]; Table 18): 5.0
- Fecal Score ([1]; Table 18): 3.6
- Fecal Score left ([1]; Table 18): 42
- Fecal % Redn ([1]; Table 19): 53%
- Freshness Score ([1]; Table 19): 4.5
- Pleasantness Score ([1]; Table 19): 4.8
- Fecal Score ([1]; Table 19): 4.1
- Fecal Score left ([1]; Table 19): 47
- Fecal % Redn ([1]; Table 20): 44%
- Freshness Score ([1]; Table 20): 4.1
- Pleasantness Score ([1]; Table 20): 4.2
- Fecal Score ([1]; Table 20): 4.9
- Fecal Score left ([1]; Table 20): 56
- DMTS Dyn Conc (DMTS): 0.151 µg/L
- DMTS Reduction (DMTS): 81
- olfactory detection thresholds (ODT) [2]: 0.000508 µg/L
- Indole Dyn Conc (indole): 0.133 µg/L
- Indole Reduction (indole): 72
